From patent US8202998B2, “Salts of benzimidazolyl pyridyl ethers and formulations thereof” (Novartis AG, priority 2006, dated 2012)
In brackets after ≈: the same amount, converted by molar mass.

How the values were obtained:
[1] = Bioavailability study of API and salts of API in dogs; type: in vivo, beagle dogs; conditions: single 100 mg oral dose
Protocol: For comparison, a microemulsion of the free base was also studied. The study was performed with 4 dogs, weighing 9-15 kg each. A crossover design with a washout period of at least 1 week was used. The dogs were given a single oral dose of 100 mg of test compound, administered under fasting conditions.

[2] = Effect of grinding on morphic properties; type: physicochemical
[3] = Aqueous solubility of salts in deionized water
[4] = Determination of solubility at 25° C.; type: physicochemical; conditions: for solubility: thermodynamic from solid
Protocol: Excess solids were equilibrated in each solvent for over 24 hours at 25° C.±0.1. Concentration in aqueous supernatant was measured by UV and HPLC and concentrations in organic solvents by gravimetry.

[5] = Stability: degradation products (DP) and appearance (color) under stress conditions; type: physicochemical; parameters: key to CL: A: No change of color; B: Slight discoloration; C: Medium discoloration; D: Strong discoloration; ↓: Suspension; *: Clear solution after stress test; —: no change; x: test not performed
Protocol: Column: Symmetry C18 (Waters), 3.5 μm, 3×150 mm
Mobile phase: A=0.1% TFA in water; B=acetonitrile
Gradient: 20 to 100% B in 10 minutes
Column temperature: 40° C.
Stability of the three salts with respect to color and degradation products were assessed under various conditions.

[6] = Apparent pKa by pH profile solubility study; type: physicochemical; conditions: determined by a pH profile solubility study
Source text: The apparent pKa of the compound of Formula I refers to the apparent ionization constant of the compound of Formula I as determined by a pH profile solubility study. Thus, the apparent pKa of the compound of Formula I is a complex term consisting of three overlapping ionization constants of the basic nitrogens in Formula I.

[7] = Polymorphism behavior: crystal modification after 24 hours equilibration; type: physicochemical
Protocol: A suspension of 6 mg of drug substance in 300 μl of solvent is prepared. Samples are agitated for ≧24 hour at 22° C.±2° C. The solids are collected and investigated for changes.

[8] = Hygroscopicity (sorption/desorption); type: physicochemical
Protocol: Sorption/desorption isotherms were measured using VTI vapor sorption device (DVS-1). Measurements were carried out at 25° C.

[9] = pH of 1% solution or suspension; type: physicochemical; conditions: In water
[10] = Aqueous solubility of API as a function of pH (shake flask method); type: physicochemical; conditions: for solubility at 5 days: aqueous HCl or NaOH solution, ionic strength 0.15 (KCl), thermodynamic from solid, room temperature
Protocol: The aqueous solubility of the compound of Formula I was assessed as a function of pH. Solubility of the compound of Formula I was determined using the shake flask method. The following aqueous solutions of hydrochloric acid (HCl) were prepared: 100, 33.3, 11.1, 3.7, 1.2, 0.4, and 0 mM. The following aqueous solutions of sodium hydroxide (NaOH) were prepared: 1.2 and 0.4 mM. The ionic strength of each of these solutions was adjusted to 0.15 using potassium chloride. Excess amounts of the compound of Formula I were added to a 1 mL aliquot of each of the above solutions in 1.5-mL polypropylene tubes. The tubes were agitated at room temperature for 5 days before analysis. On the day of analysis, the tubes were centrifuged at 15,000 revolutions per minute (rpm) using a microcentrifuge at 22° C. for 20 minutes. The concentration of compound of Formula I in the supernatant was measured by HPLC. The pH of the supernatant was measured using an Orion pH meter, which was calibrated before use.

[11] = Thermogravimetry / loss on drying; type: physicochemical
[12] = Intrinsic dissolution rate; type: physicochemical; conditions: 37° C.
Protocol: The intrinsic dissolution rate measurements were carried out in 0.5 cm^2 VanKel die assemblies and a pellet pressure of 1 ton. The dissolution was measured using a Cary 50 spectrophotometer with a stirring rate of 200 rpm. The solution medium was held at 37° C. and measurements were made at 276 nm.

[13] = beagle, dog, plasma, fasting, mean and sd
[14] = deionized water, water, thermodynamic from solid
[15] = 0.1% solutions or suspensions, 1 week 80° C. or 50° C., Methanol
[16] = 0.1% solutions or suspensions, 1 week 80° C. or 50° C., Water
[17] = 0.1% solutions or suspensions, 1 week 80° C. or 50° C., pH 1
[18] = 0.1% solutions or suspensions, 1 week 80° C. or 50° C., pH 3
[19] = 0.1% solutions or suspensions, 1 week 80° C. or 50° C., pH 5
[20] = 0.1% solutions or suspensions, 1 week 80° C. or 50° C., pH 7
[21] = 0.1% solutions or suspensions, 1 week 80° C. or 50° C., pH 9
[22] = 0.1% solutions or suspensions, 1 week 80° C. or 50° C., pH 11
[23] = 1-2 weeks 50° C., tight container, 1% in mixture 1
[24] = 1-2 weeks 50° C., tight container, 1% in mixture 2
[25] = 1-2 weeks 50° C./75% r.h., 1% in mixture 1
[26] = 1-2 weeks 50° C./75% r.h., 1% in mixture 2
[27] = Solid stage, 1 week 80° C., tight container, Bulk (HPLC)
[28] = Xenon light (approx. 1200 kLuxh), Bulk (HPLC)

Cn1c(Nc2ccc(C(F)(F)F)cc2)nc2cc(Oc3ccnc(-c4ncc(C(F)(F)F)[nH]4)c3)ccc21 [API, {1-methyl-5-[2-(5-trifluoromethyl-1H-imidazol-2-yl)-pyridin-4-yloxy]-1H-benzoimidazol-2-yl}-(4-trifluoromethyl-phenyl)amine]
AUC(0-inf) [1, 13]: 5310 ± 4510 ng·h/mL
Cmax [1, 13]: 62.9 ± 74.4 ng/mL
Tmax ([1]; beagle, dog, plasma, fasting, median): 16 h
Tlag ([1]; fasting, median): 1.0 h
Absolute F ([1]; relative to an iv dose of 1.25 mg/kg): 2.32 ± 1.97
Effect of grinding [2]: No change
solubility [3, 14]: 9 µg/mL
solubility at 48 h [3, 14]: 4 µg/mL
pH ([3]; pH of the saturated aqueous solutions): 5.235
solubility ([4]; 0.1N HCl, 25 °C, simulated gastric fluid, read-out: Solubility (approx. at 25° C.) (HPLC)): 200 µg/mL (≈ 386 µM)
solubility ([4]; acetonitrile, 25 °C, organic solvent or mixture, read-out: Solubility (approx. at 25° C.)): 5200 µg/mL (≈ 10000 µM)
solubility ([4]; aqueous medium at pH 3, 25 °C, pH 3, aqueous buffer, read-out: Solubility (approx. at 25° C.) (HPLC)): 0.06 µg/mL (≈ 0.116 µM)
solubility ([4]; aqueous medium at pH 4.5, 25 °C, pH 4.5, aqueous buffer, read-out: Solubility (approx. at 25° C.) (HPLC)): 0.09 µg/mL (≈ 0.174 µM)
Solid ([4]; line after Water under Solubility): No change
solubility ([4]; methanol, 25 °C, organic solvent or mixture, read-out: Solubility (approx. at 25° C.)): 11400 µg/mL (≈ 22000 µM)
Aqueous solubility (in words) ([4]; summary of Table 8): nearly insoluble in water
solubility ([4]; water, 25 °C, water, read-out: Solubility (approx. at 25° C.) (HPLC)): 24 µg/mL (≈ 46.3 µM)
CL [5, 15]: A
DP [5, 15]: 0.6%
CL [5, 16]: A↓
DP [5, 16]: 0.6%
CL [5, 17]: A
DP [5, 17]: 1.4%
CL [5, 18]: A↓
DP [5, 18]: 0.9%
CL [5, 19]: A↓
DP [5, 19]: 0.6%
CL [5, 20]: A↓
DP [5, 20]: 0.9%
CL [5, 21]: A↓
DP [5, 21]: 27.0%
CL [5, 22]: A↓
DP [5, 22]: >99%
CL [5, 23]: A
DP [5, 23]: 0.7%
CL [5, 24]: A
DP [5, 24]: 0.6%
CL [5, 25]: A
DP [5, 25]: 0.8%
CL [5, 26]: A
DP [5, 26]: 0.5%
Stability in methanol (in words) ([5]; In methanol): stable
CL [5, 27]: A
DP [5, 27]: 0.6%
DP ([5]; Solid state, 1 week 80° C./175% r.h, Bulk (HPLC)): 0.6%
CL ([5]; Solid state, 1 week 80° C./, Bulk (HPLC)): A
DP ([5]; Unstressed): 0.6%
CL [5, 28]: A
DP [5, 28]: 0.6%
optimum pH for aqueous stability ([5]; aqueous): 5
Aqueous stability at higher pH (in words) ([5]; higher pH (9 and 11)): decomposes
pKa [6]: ~4.7
Crystal modification after 24 hours equilibration (DSC/XRPD/TG) ([7]; 2-propanol): No change
Crystal modification after 24 hours equilibration (DSC/XRPD/TG) ([7]; Acetone): No change
Crystal modification after 24 hours equilibration (DSC/XRPD/TG) ([7]; Acetonitrile): Change
Crystal modification after 24 hours equilibration (DSC/XRPD/TG) ([7]; Ethanol): No change
Crystal modification after 24 hours equilibration (DSC/XRPD/TG) ([7]; Ethyl acetate): No change
Crystal modification after 24 hours equilibration (DSC/XRPD/TG) ([7]; Methanol): No change
Crystal modification after 24 hours equilibration (DSC/XRPD/TG) ([7]; PEG400): No change
Crystal modification after 24 hours equilibration (DSC/XRPD/TG) ([7]; Water): Change
Hygroscopicity from moisture sorption profiles (in words) [8]: non-hygroscopic
Hygroscopicity: After 1 day at 80% r.h. ([8]; 80% r.h., 1 day, 25° C.): 0
Hygroscopicity: After 1 day at 95% r.h. ([8]; 95% r.h., 1 day, 25° C.): 0.1
pH of 1% solution or suspension [9]: 5.5
Aqueous solubility (in words) ([10]; Water): practically insoluble in water
solubility at 5 days ([10]; aqueous buffer, pH 2.19): 125 µg/mL (≈ 242 µM)
solubility at 5 days ([10]; aqueous buffer, pH 3.75): 1.9 µg/mL (≈ 3.66 µM)
solubility at 5 days ([10]; aqueous buffer, pH 5.78): 0.4 µg/mL (≈ 0.772 µM)
solubility at 5 days ([10]; aqueous buffer, pH 10.13): 0.3 µg/mL (≈ 0.579 µM)
solubility at 5 days ([10]; aqueous buffer, pH 11.00): 0.3 µg/mL (≈ 0.579 µM)
solubility at 5 days ([10]; simulated gastric fluid, pH 1.36): 709 µg/mL (≈ 1370 µM)
Loss on drying by TG ([11]; As is): 3.3%
Thermogravimetry (weight loss in %) ([11]; Heating rate 20 K/min): 3.3%
Intrinsic dissolution rate ([12]; HCl 0.1N): 0 mg min^−1 cm^−2
Intrinsic dissolution rate ([12]; Water): 0 mg min^−1 cm^−2
